This is an account of results in patent publication EP4759810A1, “PROTAC TARGETING BCL-XL PROTEIN AND USE THEREOF” (BEIJING SUNCELL BIO-MEDICAL CO., LTD., priority 2023, dated 2025).

pEC50: −log10 of the molar value. Read-outs that look alike come from different tables or passages of the source.

In series [1] the test system is Molt-4 cells. Put plainly: Molt-4 cell killing activity test (CCK-8). The series is classed as cell-based. Particulars: for pEC50: Homo sapiens; for killing Molt-4 cells at different concentrations (Figure 1), in words: 0.001-3 µM, comparison with control molecules. As to the method: Molt-4 cells were cultured and amplified in 10 cm dishes by using RPMI-1640 medium supplemented with 10% fetal bovine serum. Actively growing and healthy Molt-4 cells were collected, centrifuged at 1000 rpm for 5 minutes, and after removing the supernatant, the cells were resuspended in fresh RPMI-1640 medium containing 10% fetal bovine serum. Cell counting was then performed. The cell density was adjusted to 120,000 cells per milliliter, and 100 µL of the cell suspension was added to each well of a 96-well transparent cell culture plate. It was noted that the edge wells of the 96-well plate were not used for testing; and 300 µL of PBS alone was added to these wells to reduce medium evaporation.
The small molecule compounds to be tested for activity were prepared. A series of small molecule concentration gradients (0.001, 0.003, 0.01, 0.03, 0.1, 0.3, 1, and 3 µM) were pre-set, and a series of 2× drug dilutions for the above concentrations were prepared in RPMI-1640 medium containing 10% fetal bovine serum. 100 µL of the above medium containing the gradient concentrations of the drug was added to each well of a 96-well plate pre-seeded with cells, so that the final drug concentration in each well was the pre-set concentration gradient. Three replicate wells were used for each tested drug concentration. The 96-well plate was placed back in a 37°C incubator, and the cell viability was measured after three days.
The plate was taken out three days after adding the drugs, and 100 µL of pre-prepared CCK-8 working solution was added to each well. The CCK-8 working solution was obtained through diluting a CCK-8 stock solution (C0041, Beyotime) by 10-fold volumn with a serum-free RPMI-1640 medium. The 96-well plates with the added CCK-8 working solution were placed back in the 37°C incubator and incubated for 0.5-2 hours. The plates were then taken out, and the absorbance value (OD value) of each well was measured at a wavelength of 450 nm, and the cell viability in each experimental group was calculated according to the following formula: Relative cell viability (%) = […] × 100%.

Series [2] deals with T1, Bcl-xL protein (Homo sapiens, UniProt Q07817).
T1 construct: host or cells: Molt-4 cells
T1 sequence (Q07817 whole entry): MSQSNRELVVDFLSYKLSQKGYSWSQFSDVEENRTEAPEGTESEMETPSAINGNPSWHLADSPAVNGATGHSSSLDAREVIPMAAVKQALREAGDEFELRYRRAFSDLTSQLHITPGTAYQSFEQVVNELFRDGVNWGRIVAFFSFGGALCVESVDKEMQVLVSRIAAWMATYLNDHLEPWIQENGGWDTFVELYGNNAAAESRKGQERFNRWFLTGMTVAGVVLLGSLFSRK
Put plainly: Degradation experiment of Bcl-xL target protein (Western blot in Molt-4 cells). The series is classed as cell-based. The settings on record: 100 nM, 0, 2, 6, 16 h, GAPDH internal control, Figure 4. As for the experimental part:
Actively growing and healthy Molt-4 cells were subcultured into a fresh RPMI-1640 medium containing 10% fetal bovine serum, and each PROTAC molecule was added thereto at a final concentration of 100 nM. After drug treatment for the specified times (0, 2, 6, and 16 hours), the cells were collected, the supernatant was discarded by centrifugation, and the cells were washed twice with pre-cooled PBS buffer. Total protein was extracted with a lysis buffer (Servicebio, G2002-100ML), and the protein concentration was normalized by using a BCA protein quantification kit (Servicebio, G2026). Protein samples were mixed with a protein-loading buffer and incubated at 95°C for 5 minutes. Western blotting experiments were performed by using the following antibodies: Bcl-xL (Abcam, catalog number ab32370), diluted at 1:500; GAPDH antibody (Servicebio, catalog number GB15004), diluted at 1:1000; and horseradish peroxidase-conjugated goat anti-rabbit secondary antibody (Servicebio, catalog number GB23303), diluted at 1:5000.

Series [3] concerns Molt-4 cells. The series is described as follows: Detection of E3 enzyme-dependence: Molt-4 cell killing with or without pomalidomide (CCK-8). The series is classed as cell-based. Particulars: 10 µM pomalidomide, Figure 2. As to the method: Actively growing and healthy Molt-4 cells were collected, centrifuged at 1000 rpm for 5 minutes, and after removing the supernatant, the cells were resuspended in fresh RPMI-1640 medium containing 10% fetal bovine serum. Cell counting was then performed. The cell density was adjusted to 120,000 cells per milliliter, and 100 µL of the cell suspension was added to each well of a 96-well transparent cell culture plate. It was noted that the edge wells of the 96-well plate were not used for testing, and 300 µL of PBS alone was added to these wells to reduce medium evaporation.
Molt-4 cells were plated in duplicate according to the number of the tested small molecules, so as to test the effects with and without the addition of pomalidomide (a competitive ligand specific for E3 ligase), in which one half of the parallel cells was added 10 µM pomalidomide. A series of small molecule concentration gradients (0.001, 0.003, 0.01, 0.03, 0.1, 0.3, 1, and 3 µM) were pre-set, and a series of 2× drug dilutions for the above concentrated were prepared in DMEM medium containing 10% fetal bovine serum. 100 µL of the above DMEM medium containing the gradient concentrations of the drug was added to 96-well plates that have been pre-plated with cells, so that the final drug concentration in each well was the pre-set series of concentrations respectively. Three replicate wells were used for each test drug concentration. The 96-well plates were placed back in a 37°C incubator, and the cell viability was detected after three days.
Cell viability after drug treatment was detected by using the CCK-8 method: three days after adding the drugs, the plates were taken out, and the supernatant was discarded. Then, 100 µL of pre-prepared CCK-8 working solution was added to each well. The CCK-8 working solution was obtained through diluting a CCK-8 stock solution (C0041, Beyotime) by 10-fold volumn with a serum-free DMEM culture medium. The 96-well plates with the added CCK-8 working solution were placed back in the 37°C incubator and incubated for 0.5-2 hours. The plates were then taken out, and the absorbance value (OD value) of each well was measured at a wavelength of 450 nm. The cell viability in each experimental group was calculated according to the following formula: Relative cell viability (%) = (Blank control group - Experimental group) / Blank control group × 100%.

In series [4] the test system is HEF cells. The series is described as follows: Senescent cell killing activity test, HEF cell model (CCK-8). The series is classed as cell-based, human. As for the experimental part:
To avoid replication of the induced senescent cells, low-passage proliferating HEF cells (<10 passages), MRC5 cells (<6 passages), and BJ cells (<10 passages) were used as normal controls. For chemical drug induced senescence, HEF cells were treated with 10 µM etoposide (Selleck, S1225) for 36-48 hours, MRC5 cells were treated with 5 µM bleomycin (Selleck, S1225) for 72 hours, and BJ cells were treated with 10 µg/mL bleomycin for 72 hours. Three days after the treatment, the cells were subcultured in fresh culture medium at a 1:3 ratio for 72 hours before further analysis and use.
Non-senescent and induced-senescent HEF cells, non-senescent and induced-senescent MRC5 cells, and non-senescent and induced-senescent BJ cells were respectively digested with trypsin, and centrifuged at 1000 rpm for 5 minutes. Then, the supernatant was removed, and the cells were resuspended in fresh DMEM culture medium containing 10% fetal bovine serum for counting. The cell density was adjusted so that the non-senescent cell density was 4000 cells/100 µL and the senescent cell density was 7000 cells/100 µL. 100 µL of the cell suspension was added to each well of a 96-well transparent cell culture plate. It was noted that the edge wells of the 96-well plate were not used as testing wells, and 300 µL of PBS alone was added to these wells to reduce evaporation of the culture medium. The 96-well plates with the well-plated cells were placed back in a 37°C incubator for overnight culture until the cells adhered. On the next day, the small molecule compounds to be tested were prepared and added after the cells had adhered.
A series of small molecule concentration gradients (0.01, 0.03, 0.1, 0.3, 1, 3, 10, and 25 µM) were pre-set, and a series of 2× drug dilutions for the above concentrations were prepared in DMEM culture medium containing 10% fetal bovine serum. 100 µL of the above DMEM culture medium containing the gradient concentrations of the drug was added to each well of the 96-well plate that had been well-plated with cells, so that the final drug concentration in each well was the pre-set series of concentrations. Three replicate wells were used for each test drug concentration. The 96-well plates were placed back in a 37°C incubator, and cell viability was measured after three days.
Three days after adding the drug, the plates were taken out, and the supernatant was discarded. 100 µL of pre-prepared CCK-8 working solution was added to each well. The CCK-8 working solution was obtained through diluting a CCK-8 stock solution (C0041, Beyotime) with a serum-free DMEM culture medium by 10-fold volumn. The 96-well plates containing the CCK-8 working solution were placed back in the 37°C incubator and incubated for 0.5-2 hours. The plates were then taken out, and the absorbance value (OD value) of each well was measured at a wavelength of 450 nm. The cell viability in each experimental group was calculated according to the following formula: Relative cell viability (%) = (Blank control group - Experimental group) / Blank control group × 100%.

Where [5] appears, read: 72 h, Molt-4 cells, three days, CCK-8, read-out: EC50 (Molt-4).
Setting [6] is: Bcl-xL-positive Molt-4 cells, read-out: cellular activity / killing activity (Molt-4 cells).

`Cc1cc([C@H](C(=O)N2C[C@H](O)C[C@H]2C(=O)N[C@@H](CC(=O)N2CCC(CN3CCN(CC#Cc4ccc(OCCCc5ccc(N6CCc7cccc(C(=O)Nc8nc9ccccc9s8)c7C6)nc5C(=O)O)c(F)c4)CC3)CC2)c2ccc(-c3scnc3C)cc2)C(C)C)on1` [APH7]: the pEC50 in series [1] (setting [5]) is 7.00 to 8.00. The “degradation of the Bcl-xL protein” value in series [2] was “had the ability to degrade the Bcl-xL protein”.
With `O=C1CCN(c2cc(F)c(N3CCN(CC#Cc4ccc(OCCCc5ccc(N6CCc7cccc(C(=O)Nc8nc9ccccc9s8)c7C6)nc5C(=O)O)c(F)c4)CC3)cc2F)C(=O)N1` [APQ904], in series [3], the “cell killing activity after addition of pomalidomide (+poma) compared to without (-poma)” value was “significantly reduced cell killing activity”. Besides, the “killing Molt-4 cells at different concentrations (Figure 1), in words” value in series [1] is recorded as “comparable to A-1331852”. The pEC50 in series [1] (setting [5]) and in series [1] (setting [6]) was above 8.00 in each case. For the same compound, the “degradation of the Bcl-xL protein” value in series [2] is reported as “had the ability to degrade the Bcl-xL protein”.
`Cc1cc([C@H](C(=O)N2C[C@H](O)C[C@H]2C(=O)N[C@@H](CC(=O)N2CCC(CCN3CCN(CC#Cc4ccc(OCCCc5ccc(N6CCc7cccc(C(=O)Nc8nc9ccccc9s8)c7C6)nc5C(=O)O)c(F)c4)CC3)CC2)c2ccc(Cl)cc2)C(C)C)on1` [APH105]: the pEC50 in series [1] (setting [5]) and in series [1] (setting [6]) was above 8.00 each time. In series [2], the “degradation of the Bcl-xL protein” value is recorded as “had the ability to degrade the Bcl-xL protein”.
With `O=C1CCC(N2C(=O)c3cccc(NCCOCCOCCOCCOCCN4CCN(CC#Cc5ccc(OCCCc6ccc(N7CCc8cccc(C(=O)Nc9nc%10ccccc%10s9)c8C7)nc6C(=O)O)c(F)c5)CC4)c3C2=O)C(=O)N1` (stereo not drawn) [BF4], the “killing senescent HEF cells” value in series [4] (etoposide-induced senescent vs normal HEF cells, Figures 3A-3F) was “efficiently and selectively kill senescent HEF cells”. In addition, the “toxicity on normal non-senescent HEF cells” value in series [4] (higher concentration (25 µM)) is “no toxicity on normal non-senescent HEF cells”. Further, the “cell killing activity after addition of pomalidomide (+poma) compared to without (-poma)” value in series [3] is reported as “significantly reduced cell killing activity”. Further, the pEC50 in series [1] (setting [5]) is 7.00 to 8.00. Also, the “degradation of the Bcl-xL protein” value in series [2] is “had the ability to degrade the Bcl-xL protein”.
Consider `CC(C)(C)[C@H](NC(=O)C1(F)CC1)C(=O)N1C[C@H](O)C[C@H]1C(=O)N[C@@H](CC(=O)N1CCC(CCN2CCN(CC#Cc3ccc(OCCCc4ccc(N5CCc6cccc(C(=O)Nc7nc8ccccc8s7)c6C5)nc4C(=O)O)c(F)c3)CC2)CC1)c1ccc(Cl)cc1` [APH106], for which the pEC50 in series [1] (setting [5]) is 7.00 to 8.00. Also, the “degradation of the Bcl-xL protein” value in series [2] was “had the ability to degrade the Bcl-xL protein”.
Turning to `CS(=O)(=O)NC(=O)c1nc(N2CCc3cccc(C(=O)Nc4nc5ccccc5s4)c3C2)ccc1CCCOc1ccc(C#CCN2CCN(CC3CCN(c4ccc(N5CCC(=O)NC5=O)cc4)CC3)CC2)cc1F` [APQ10-2], the “cell killing activity after addition of pomalidomide (+poma) compared to without (-poma)” value in series [3] is given as “significantly reduced cell killing activity”. Besides, the “killing Molt-4 cells at different concentrations (Figure 1), in words” value in series [1] is “comparable to A-1331852”. In addition, the pEC50 in series [1] (setting [5]) and in series [1] (setting [6]) was above 8.00 each time. Moreover, the “degradation of the Bcl-xL protein” value in series [2] is recorded as “had the ability to degrade the Bcl-xL protein”.
In the case of `Cc1ncsc1-c1ccc([C@H](C)NC(=O)[C@@H]2C[C@@H](O)CN2C(=O)[C@@H](NC(=O)CN2CCN(CC#Cc3ccc(OCCCc4ccc(N5CCc6cccc(C(=O)Nc7nc8ccccc8s7)c6C5)nc4C(=O)O)c(F)c3)CC2)C(C)(C)C)cc1` [APH1], in series [1] (setting [5]), the pEC50 is 7.00 to 8.00. In addition, the “degradation of the Bcl-xL protein” value in series [2] is listed as “had the ability to degrade the Bcl-xL protein”.
